Tested on: P. falciparum 3D7 growth, pLDH absorbance
Assay: blood-stage malaria parasite growth potency – strain 3D7, dose response (AID 2305)

Row | SMILES | IC50 [nM]
1 | CCCCCCCC1CC(CC(=O)Nc2ccnc3ccc(OC)cc23)CN1C(=O)OC(C)(C)C (configuration not stated) | 710
2 | CCCCCN1CCCN(Cc2cccc(NC(=O)c3ccc(-c4ccccc4)cc3)c2)CC1 | 700
3 | Cc1cccc2[nH]c(-c3ccc(-c4cccc(CNCCNC(=O)c5ccnn5C)c4)s3)nc12 | 220
4 | CCCCCN1CCCC1CNS(=O)(=O)c1cccc(C(=O)Nc2cccc(C(F)(F)F)c2)c1 (configuration not stated) | 770
5 | CN(c1ccc2c(c1)nc(NCc1ccc(F)cc1)n2C)c1ccnc(Nc2ccc(CS(C)(=O)=O)cc2)n1 | 830
6 | COC(=O)c1ccc(CC(C)NCC(O)c2ccc(F)c(Cl)c2)cc1 (configuration not stated) | 860
7 | CSc1ccc(C=CC(=O)NC(=O)c2ccccc2O)cc1 | 290
8 | Cc1cccc(-c2nn(-c3ccccc3)c3[nH]c(=O)c(CNC4CCCC4)cc23)c1 | 760
9 | COc1ccc(S(=O)(=O)N2CCOCC2)cc1NC(=O)c1cc2ccccc2o1 | 790
10 | CN1[C@@H]2CC[C@H]1c1cc(NC(=O)c3cc(-c4ccc(Cl)cc4)cs3)ccc12 | 1300
11 | CCc1nc(N)nc(N)c1-c1ccc(C(C)(C)C)cc1 | 230
12 | O=C(Nc1ccsc1)Nc1cccc(-c2cccc(-c3nc4ccccc4[nH]3)c2)c1 | 120
13 | CC(C)c1ccc(CN2CCCCC(NC(=O)c3cc(-c4cccc(F)c4)cs3)C2)cc1 (configuration not stated) | 940
14 | O=C(Nc1ccc(C(F)(F)F)cc1)c1ccc(S(=O)(=O)NC2CCCN(CC3CCCCC3)C2)cc1 (configuration not stated) | 720
15 | CC(C)=CCN1CCC(C(=O)Nc2ccc(-c3nc4ccccc4[nH]3)cc2)CC1 | 910
16 | CC(c1cccc(Nc2nccc(-c3c(-c4cccc(NC(=O)c5c(F)cccc5F)c4)nn4ccccc34)n2)c1)S(C)(=O)=O (configuration not stated) | 60
17 | CCN(CC)CCNc1nc(C=Cc2ccc(Cl)cc2)nc2cc3ccccc3cc12 | 150
18 | Cc1cc(N[C@@H](CC(C)C)C(=O)NCCc2ccccc2)nc(NCc2ccccc2C)n1 | 910
19 | COc1ccccc1NC(=O)NC1CCN(CCCCCNC(=O)/C=C/c2ccc(Cl)c(Cl)c2)CC1 | 750
20 | C[C@@H]1CN(CCCn2c3ccccc3c3ccc(C(=O)CCCN(C)C)cc32)C[C@H](C)N1 | 810
21 | CCN1[C@@H](c2ccc(Cl)cc2)[C@@H](CNCc2ccccc2O)C[C@@]1(C)CO | 310
22 | O=c1[nH]c2c(cc1CNC1CCCCC1)c(-c1cccc(F)c1)nn2-c1ccccc1 | 950
23 | CNc1cc(-c2ccc3ccnc(N)c3c2)nc(N)n1 | 120
24 | CC(C)N1CCN(C(=O)c2ccc(CN(C)CCCN3CCN(c4cccc(Cl)c4Cl)CC3)s2)CC1 | 990
25 | C1=C(c2c[nH]c3ccccc23)CCN(Cc2ccccc2)C1 | 1040

Row | SMILES | IC50 [nM]
26 | Cc1cccc(NC(=O)Nc2cccc(-c3ccc(-c4nc5ccc(C(F)(F)F)cc5[nH]4)cc3)c2)c1 | 900
27 | N#Cc1cccc(NC(=O)Nc2cccc(-c3cccc(-c4nc5ccc(F)cc5[nH]4)c3)c2)c1 | 230
28 | CCOC(=O)c1ccc(NC(=O)NCCCC2CCCN(CCCCCNC(=O)/C=C/c3ccc(Cl)c(Cl)c3)C2)cc1 (configuration not stated) | 860
29 | O=C(Nc1ccnc(-c2cccnc2)n1)c1cc(C(F)(F)F)cc(C(F)(F)F)c1 | 820
30 | Clc1cccc(-c2nc(Nc3ccnc(-c4ccc(CN5CCOCC5)cc4)c3)c3ccccc3n2)c1 | 710
31 | COc1ccc(-c2ccc(NC(=O)c3ccc(C#N)cc3)c(F)c2)cc1CN(C)CCN(C)C | 970
32 | CN1CCN(c2ccnc3ccc(NC(=O)Nc4cccc5c(Br)cccc45)cc23)CC1 | 150
33 | CC(C)c1ccc2oc(-c3ccc(NC(=O)c4ccc([N+](=O)[O-])o4)cc3)nc2c1 | 340
34 | CC[C@H](C)CNC(=O)c1cncc(-c2ccc(CNCC3CNCCCO3)cc2)c1 (some centres not stated) | 1020
35 | CSc1ccccc1NC(=S)NC1CCN(CCCCCNC(=O)/C=C/c2ccc(Cl)c(Cl)c2)CC1 | 780
36 | CCOc1ccc(-c2nc(NC(=O)COc3ccc(OC)cc3)sc2C)cc1 | 540
37 | NC(=NC1CC1)c1ccc2nc(CCCCCc3nc4ccc(C(N)=NC5CC5)cc4[nH]3)[nH]c2c1 | 930
38 | O=S(=O)(Nc1cccc(CCN2CCC(N3CCCCC3)CC2)c1)c1ccc(Oc2ccccc2)nc1 | 930
39 | Cc1cccc2[nH]c(-c3cccc(-c4cccc(C(=O)NCCc5cn(C)cn5)c4)c3)nc12 | 590
40 | COc1cc(C(=O)NCCCN2CCN(c3cccc(Cl)c3)CC2)ccc1-c1nc2cc(Cl)c(F)cc2[nH]1 | 1020
41 | Cc1cccc2[nH]c(-c3ccc(-c4ccc(C(=O)NCCN5CCCC5)cc4)cc3)nc12 | 520
42 | CNC(=O)c1cnc(Nc2ccc(OCC(O)CN(C)C)cc2)nc1Nc1cccc([N+](=O)[O-])c1 (configuration not stated) | 620
43 | Cc1ccc(Nc2nc(NN=Cc3ccccc3[N+](=O)[O-])nc(Nc3ccc([N+](=O)[O-])cc3)n2)cc1C | 690
44 | Cc1noc(=O)c2ccc(NC(=O)C(O)(CSc3ccccc3)CC(C)C)cc12 (configuration not stated) | 720
45 | CCc1cc(OC)c(C(=O)NC2CCN(C[C@H](O)c3ccnc4ccc(OC)cc34)CC2)cc1Br | 810
46 | COC(=O)c1cccc(CNCc2cccc(-c3ccc(-c4nc5ccccc5[nH]4)cc3)c2)c1 | 350
47 | COc1cc(NC(=O)c2sc(-c3ccc(Cl)cc3)cc2NC(=O)c2cccnc2)ccc1OCCN1CCCC1 | 380
48 | Cc1cccc2[nH]c(-c3cccc(-c4ccc(NC(=O)Nc5ccsc5)cc4)c3)nc12 | 120
49 | CC(C)c1ccc(O)cc1Nc1ccnc2ccc(C(F)(F)F)cc12 | 680
50 | O=c1cc(NCCCNCc2cccc3c2OC(F)(F)O3)[nH]c2ccccc12 | 950

Row | SMILES | IC50 [nM]
51 | FC(F)(F)c1ccc2nc(-c3ccc(-c4cccc(CN5CCN(CCN6CCOCC6)CC5)c4)cc3)[nH]c2c1 | 160
52 | Cc1cnc(Nc2cccnc2)nc1Nc1ccccc1C(=O)NC(C)C | 1200
53 | O=C(Nc1ccc2c(c1)CCC2)c1cccc(N2CCN(c3ccncc3)CC2)c1 | 970
54 | CS(=O)(=O)Nc1cccc(-c2cnc3[nH]cc(-c4ccc(C(=O)O)cc4)c3c2)c1 | 860
55 | CCNc1cc(C(=O)N[C@@H](Cc2ccccc2)[C@H](O)CNC(C)(C)CCCC(C)C)cc(N2CCCCS2(=O)=O)c1 | 450
56 | O=c1c2ccccc2[nH]c2nc3ccccc3c(Nc3ccccc3)c12 | 140
57 | Cc1sc2ccc(Cl)cc2c1S(=O)(=O)Nc1ccc2nccc(N3C[C@@H](C)N[C@@H](C)C3)c2c1 | 110
58 | COc1ccc([N+](=O)[O-])cc1N(Cc1ccccc1-c1ccccc1)S(=O)(=O)c1ccc(C(F)(F)F)cc1 | 780
59 | Cc1ccc(CN2CCC(Oc3cccc(NC(=O)c4ccc(C(F)(F)F)cc4)c3)CC2)cc1 | 1020
60 | CCc1ccc(NC(=O)c2cccc(CN3CCCN(Cc4ccc(OC)cc4)CC3)c2)cc1 | 920
61 | CCc1cccc(-n2nc(OCC(=O)NC3CCCC3)c3cccnc32)c1 | 930
62 | Cc1ccc(NC(=O)c2cc(Br)cc(N3CCC(N(C)C)CC3)c2)cc1F | 840
63 | O=S(=O)(Nc1ccc(CCN2CCCCC2CCN2CCCC2)cc1)c1cccc2cccnc12 (configuration not stated) | 1300
64 | CCc1[nH]nc(C(=O)Nc2cccc(N3CCCC3)c2)c1C | 1460
65 | O=C(NC1CCN(Cc2ccc(F)cc2)CC1)c1ccc(-c2cccc(C(F)(F)F)c2)s1 | 1360
66 | Clc1ccc(-c2cc(-c3csc(NCCN4CCOCC4)n3)on2)c(Cl)c1 | 660
67 | COc1cc2nc(NCCc3ccccc3)nc(NCc3cc(C)no3)c2cc1OC | 240
68 | O=C(NCCc1ccccc1)N(Cc1cccc(-c2ccc(CNC3CCCC3)cc2)c1)C1CCN(Cc2ccccc2)CC1 | 400
69 | C=CCN(c1nc(NC)nc(NCc2c(OC)cccc2OC)n1)C1CCCC1 | 1460
70 | CN(C)C(=O)O[C@@H]1CN[C@H](C#Cc2cc3ncnc(Nc4ccc5c(cnn5Cc5cccc(F)c5)c4)c3s2)C1 | 760
71 | Cc1ccc(OCCCCONC(=O)c2ccccc2)cc1 | 150
72 | COc1ccc2nccc([C@H](O)CN3CCC(NCc4nc5c(F)cccc5[nH]4)CC3)c2c1 | 710
73 | COc1ccc(-c2csc3ncnc(Cl)c23)cc1OC | 770
74 | Cc1cccc2[nH]c(-c3cccc(-c4ccc(CNCc5cnn(-c6ccccc6)n5)cc4)c3)nc12 | 920
75 | Cn1nccc1C(=O)NCCNCc1cccc(-c2csc(-c3nc4ccccc4[nH]3)c2)c1 | 840

Row | SMILES | IC50 [nM]
76 | O=C(C=Cc1ccc(Cl)c(Cl)c1)NCCCCCN1CCCC(CCCNS(=O)(=O)c2cccc(C(F)(F)F)c2)C1 (configuration not stated) | 960
77 | CCOc1ccc(C2CCN(CCCCNC(=O)c3ccc(NC(=O)c4ccc(Cl)cc4)cc3)CC2)c(CC)c1 | 790
78 | O=C(Nc1cc(C(F)(F)F)cc(C(F)(F)F)c1)Nc1cc(C(F)(F)F)cc(C(F)(F)F)c1 | 730
79 | CCOc1cc(OCC)c2ccccc2c1CNCCCCCCNCc1c(OCC)cc(OCC)c2ccccc12 | 310
80 | CCCc1ccc(C2CCN(CCCCNC(=O)c3ccc(NC(=O)c4ccc(Cl)cc4)cc3)CC2)cc1 | 630
81 | COc1ccc(CC(Cc2ccc(OC)cc2)NCC(O)c2cccc(Cl)c2)cc1 (configuration not stated) | 160
82 | COc1ccc(CN2CCCN(Cc3cccc(C(=O)Nc4ccc(C)c(F)c4)c3)CC2)cc1 | 1310
83 | CCN(CCO)CCCC(C)Nc1ccnc2cc(Cl)ccc12 (configuration not stated) | 760
84 | CCOC(=O)C(Oc1ccc2ccccc2c1)C(=O)OCC | 760
85 | Cc1ccc(Nc2nc3cc(N(C)c4ccnc(Nc5cccc(CS(C)(=O)=O)c5)n4)ccc3o2)cc1 | 970
86 | O=C(Nc1nc(-c2ccccn2)cs1)c1ccc(Br)s1 | 1060
87 | C#CCOc1ccc(N2C(N)=NC(N)=NC2(C)C)cc1 | 70
88 | CN1CCC(C(=O)N(Cc2ccc(-c3ccc(CNCCc4ccc(S(C)(=O)=O)cc4)cn3)cc2)C2Cc3ccccc3C2)CC1 | 660
89 | Cc1nn(-c2cccc(C(F)(F)F)c2)c2sc(C(=O)NC3CCN(C(C)C)CC3)cc12 | 900
90 | O=C(NCCc1ccccc1)N(Cc1cccc(-c2ccc(CNCc3ccc4c(c3)OCO4)cc2)c1)C1CCN(Cc2ccccc2)CC1 | 660
91 | Fc1ccc(CN2CCN(c3ncnc4cc(-c5ccccc5)sc34)CC2)cc1 | 1020
92 | O=C(Nc1ccccc1)N(Cc1cccc(-c2cccc(CNCCc3ccccc3)c2)c1)C1CCN(Cc2ccccc2)CC1 | 310
93 | O=C(NCCc1ccccc1)N(Cc1ccccc1-c1ccc(CNC2CCCC2)cc1)C1CCN(Cc2ccccc2)CC1 | 1130
94 | COc1cc(NCCCNCc2cn(Cc3cc(Br)cc(Br)c3)c3ccccc23)nc2ccccc12 | 180
95 | O=C1CCCN1CCCNCc1cccc(-c2ccc(-c3nc4ccccc4[nH]3)s2)c1 | 860
96 | CC(=Nc1ccc(Cl)c(Cl)c1)N(C)C | 540
97 | COc1cccc2c(NN=Cc3cccc(Cl)c3)ccnc12 | 840
